In patent US11008317B2, “Triazolopyridine inhibitors of myeloperoxidase and/or EPX” (priority 2016, dated 2021):

Experiments:
myeloperoxidase [1] = biological target: T1, myeloperoxidase (Homo sapiens, UniProt P05164); experiment: MPO Peroxidation Assay (Amplex Red Assay); assay type: biochemical; settings: potency range class, read-out: Amplex Red Assay IC50 value
T1 sequence (P05164 49-745): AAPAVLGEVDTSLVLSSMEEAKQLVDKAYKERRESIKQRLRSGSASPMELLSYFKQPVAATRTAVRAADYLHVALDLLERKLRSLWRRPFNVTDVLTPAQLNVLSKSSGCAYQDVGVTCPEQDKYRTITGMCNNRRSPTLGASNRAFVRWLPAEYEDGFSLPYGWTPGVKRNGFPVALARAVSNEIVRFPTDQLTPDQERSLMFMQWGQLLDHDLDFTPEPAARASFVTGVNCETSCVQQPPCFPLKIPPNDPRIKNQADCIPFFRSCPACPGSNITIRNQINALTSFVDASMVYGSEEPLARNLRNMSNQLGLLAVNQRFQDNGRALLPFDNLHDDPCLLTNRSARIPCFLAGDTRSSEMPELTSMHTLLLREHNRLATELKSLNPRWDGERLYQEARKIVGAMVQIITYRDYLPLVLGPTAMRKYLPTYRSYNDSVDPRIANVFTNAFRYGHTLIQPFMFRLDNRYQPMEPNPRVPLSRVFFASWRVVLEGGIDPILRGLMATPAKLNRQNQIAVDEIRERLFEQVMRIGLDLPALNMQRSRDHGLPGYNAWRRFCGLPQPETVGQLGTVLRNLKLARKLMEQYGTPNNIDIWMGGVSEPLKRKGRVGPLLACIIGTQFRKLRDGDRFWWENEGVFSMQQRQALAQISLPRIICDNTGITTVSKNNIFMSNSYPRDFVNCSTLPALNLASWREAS

myeloperoxidase [2] = biological target: T1, myeloperoxidase; experiment: MPO Chlorination Assay (APF Assay); assay type: biochemical; settings: potency range class, read-out: APF Assay IC50 value

N#Cc1ccccc1C(CCN[C@H]1CC[C@H](c2ccccc2)CC1)c1cc(N)nc2[nH]nnc12 (stereo partly drawn) [Example 161, 2-(1-{5-amino-3H-[1,2,3]triazolo [4,5-b]pyridin-7-yl}-3-{[(trans)-4-phenylcyclohexyl]amino}propyl) benzonitrile]
IC50 (myeloperoxidase [1]): 1000 to 10000 nM | IC50 (myeloperoxidase [2]): 101 to 999 nM

Nc1cc(C(CCN[C@H]2CC[C@H](c3ccccc3)CC2)c2cccc(Cl)c2)c2nn[nH]c2n1 (stereo partly drawn) [Example 162, 7-[1-(3-chlorophenyl)-3-{[(trans)-4-phenylcyclohexyl]amino}propyl]-3H-[1,2,3]triazolo [4,5-b]pyridin-5-amine]
IC50 (myeloperoxidase [1]): 101 to 999 nM | IC50 (myeloperoxidase [2]): 1 to 100 nM

Nc1cc(C(CCN[C@H]2CC[C@H](c3ccccc3)CC2)c2cccc(CO)c2)c2nn[nH]c2n1 (stereo partly drawn) [Example 164, [3-(1-{5-amino-3H-[1,2,3]triazolo [4,5-b]pyridin-7-yl}-3-{[(trans)-4-phenylcyclohexyl]amino}propyl)phenyl]methanol]
IC50 (myeloperoxidase [1]): 1000 to 10000 nM | IC50 (myeloperoxidase [2]): 1 to 100 nM

Nc1cc(C(CCN[C@H]2CC[C@H](c3ccccc3)CC2)c2cccc(S(N)(=O)=O)c2)c2nn[nH]c2n1 (stereo partly drawn) [Example 165, 3-(1-{5-amino-3H-[1,2,3]triazolo [4,5-b]pyridin-7-yl}-3-{[(trans)-4-phenylcyclohexyl]amino}propyl) benzene-1-sulfonamide]
IC50 (myeloperoxidase [1]): 101 to 999 nM | IC50 (myeloperoxidase [2]): 101 to 999 nM

Nc1cc(C(CCN[C@H]2CC[C@H](c3ccccc3)CC2)c2cccc(OC(F)F)c2)c2nn[nH]c2n1 (stereo partly drawn) [Example 166, 7-{1-[3-(difluoromethoxy)phenyl]-3-{[(trans)-4-phenylcyclohexyl]amino}propyl}-3H-[1,2,3]triazolo[4,5-b]pyridin-5-amine]
IC50 (myeloperoxidase [1]): 101 to 999 nM | IC50 (myeloperoxidase [2]): 1 to 100 nM

Cc1ccc(F)c(C(CCN[C@H]2CC[C@H](c3ccccc3)CC2)c2cc(N)nc3[nH]nnc23)c1 (stereo partly drawn) [Example 168, 7-[1-(2-fluoro-5-methylphenyl)-3-{[(trans)-4-phenylcyclohexyl]amino}propyl]-3H-[1,2,3]triazolo [4,5-b]pyridin-5-amine]
IC50 (myeloperoxidase [1]): 1000 to 10000 nM | IC50 (myeloperoxidase [2]): 1 to 100 nM

N#Cc1cccc(C(CCNC23CCC(c4ccccc4)(CC2)CC3)c2cc(N)nc3[nH]nnc23)c1 (stereo not shown) [Example 171, 7-(1-(3-cyanophenyl)-3-((4-phenylbicyclo[2.2.2]octan-1-yl)amino)propyl)-3H-[1,2,3]triazolo[4,5-b]pyridin-5-amine]
IC50 (myeloperoxidase [1]): 1 to 100 nM | IC50 (myeloperoxidase [2]): 1 to 100 nM

NCc1cccc(C(CCNC23CCC(c4ccccc4)(CC2)CC3)c2cc(N)nc3[nH]nnc23)c1 (stereo not shown) [Example 172, 7-(1-(3-(aminomethyl)phenyl)-3-((4-phenylbicyclo[2.2.2]octan-1-yl)amino)propyl)-3H-[1,2,3]triazolo[4,5-b]pyridin-5-amine]
IC50 (myeloperoxidase [1]): 101 to 999 nM | IC50 (myeloperoxidase [2]): 1 to 100 nM

COc1ccc(CNCCC(c2ccccc2)c2cc(N)nc3[nH]nnc23)cc1 (stereo not shown) [Example 175, 7-(3-{[(4-methoxyphenyl)methyl]amino}-1-phenylpropyl)-3H-[1,2,3]triazolo [4,5-b]pyridin-5-amine]
IC50 (myeloperoxidase [1]): 101 to 999 nM | IC50 (myeloperoxidase [2]): 101 to 999 nM

Nc1cc(C(CCNCC2CC2c2ccc(F)cc2)c2ccccc2)c2nn[nH]c2n1 (stereo not shown) [Example 176, 7-[3-({[2-(4-fluorophenyl)cyclopropyl]methyl}amino)-1-phenylpropyl]-3H-[1,2,3]triazolo[4,5-b]pyridin-5-amine]
IC50 (myeloperoxidase [1]): 101 to 999 nM | IC50 (myeloperoxidase [2]): 1 to 100 nM

N#CC1(c2ccccc2)CCC(NCCC(c2ccccc2)c2cc(N)nc3[nH]nnc23)CC1 (stereo not shown) [Example 177, 4-((3-(5-amino-3H-[1,2,3]triazolo[4,5-b]pyridin-7-yl)-3-phenylpropyl)amino)-1-phenylcyclohexane-1-carbonitrile]
IC50 (myeloperoxidase [1]): 101 to 999 nM | IC50 (myeloperoxidase [2]): 1 to 100 nM

Nc1cc(C(CCN[C@@H]2CC[C@@H](c3ccccc3)C[C@@H]2CO)c2ccccc2)c2nn[nH]c2n1 (stereo partly drawn) [Example 180, [(1S,2R,5R)-2-[(3-{5-amino-3H-[1,2,3]triazolo[4,5-b]pyridin-7-yl}-3-phenylpropyl)amino]-5-phenylcyclohexyl] methanol]
IC50 (myeloperoxidase [1]): 101 to 999 nM | IC50 (myeloperoxidase [2]): 1 to 100 nM

Nc1cc([C@H](CCNC23CCC(c4ccccc4)(CC2)C(=O)C3)c2ccccc2)c2nn[nH]c2n1 [Example 182, 4-{[(3R)-3-{5-amino-3H-[1,2,3]triazolo [4,5-b]pyridin-7-yl}-3-phenylpropyl]amino}-1-phenylbicyclo [2.2.2]octan-2-one]
IC50 (myeloperoxidase [1]): 101 to 999 nM | IC50 (myeloperoxidase [2]): 1 to 100 nM

Nc1cc([C@H](CCNC2CC[C@H](c3ccccc3)[C@@H](O)C2)c2ccccc2)c2nn[nH]c2n1 (stereo partly drawn) [Example 183, (1S,2R)-5-{[(3R)-3-{5-amino-3H-[1,2,3]triazolo [4,5-b]pyridin-7-yl}-3-phenylpropyl]amino}-2-phenylcyclohexan-1-ol]
IC50 (myeloperoxidase [1]): 1000 to 10000 nM | IC50 (myeloperoxidase [2]): 1 to 100 nM

Nc1cc([C@H](CCNC2CC[C@H](c3ccccc3)[C@@H](O)C2)c2ccccc2)c2nn[nH]c2n1 (stereo partly drawn) [Example 184, (1S,2R)-5-{[(3R)-3-{5-amino-3H-[1,2,3]triazolo[4,5-b]pyridin-7-yl}-3-phenylpropyl]amino}-2-phenylcyclohexan-1-ol]
IC50 (myeloperoxidase [1]): 101 to 999 nM | IC50 (myeloperoxidase [2]): 1 to 100 nM

Nc1cc([C@H](CCN2CCC(O)(Cc3ccccc3)CC2)c2ccccc2)c2nn[nH]c2n1 [Example 185, 1-[(3R)-3-{5-amino-3H-[1,2,3]triazolo [4,5-b]pyridin-7-yl}-3-phenylpropyl]-4-benzylpiperidin-4-ol]
IC50 (myeloperoxidase [1]): 1000 to 10000 nM | IC50 (myeloperoxidase [2]): 1 to 100 nM

Nc1cc(C(CCN2CCC(c3ccccc3)CC2)c2ccccc2)c2nn[nH]c2n1 (stereo not shown) [Example 186, 7-[1-phenyl-3-(4-phenylpiperidin-1-yl)propyl]-3H-[1,2,3] triazolo[4,5-b] pyridin-5-amine]
IC50 (myeloperoxidase [1]): 1000 to 10000 nM | IC50 (myeloperoxidase [2]): 101 to 999 nM

Nc1cc(C(CCN2CCC(Cc3ccccc3)CC2)c2ccccc2)c2nn[nH]c2n1 (stereo not shown) [Example 187, 7-[3-(4-benzylpiperidin-1-yl)-1-phenylpropyl]-3H-[1,2,3]triazolo [4,5-b]pyridin-5-amine]
IC50 (myeloperoxidase [1]): 1000 to 10000 nM | IC50 (myeloperoxidase [2]): 1 to 100 nM

Nc1cc(C(CCNC2CCc3ccccc3C2)c2ccccc2)c2nn[nH]c2n1 (stereo not shown) [Example 188, 7-{1-phenyl-3-[(1,2,3,4-tetrahydronaphthalen-2-yl)amino]propyl}-3H-[1,2,3]triazolo [4,5-b]pyridin-5-amine]
IC50 (myeloperoxidase [1]): 101 to 999 nM | IC50 (myeloperoxidase [2]): 1 to 100 nM

NC(=O)CN(CC[C@H](c1ccccc1)c1cc(N)nc2[nH]nnc12)C12CCC(c3ccccc3)(CC1)CC2 [Example 190, (R)-2-((3-(5-amino-3H-[1,2,3]triazolo[4,5-b]pyridin-7-yl)-3-phenylpropyl)(4-phenylbicyclo[2.2.2]octan-1-yl)amino)acetamide]
IC50 (myeloperoxidase [1]): 101 to 999 nM | IC50 (myeloperoxidase [2]): 1 to 100 nM

CNC(=O)CN(CC[C@H](c1ccccc1)c1cc(N)nc2[nH]nnc12)C12CCC(c3ccccc3)(CC1)CC2 [Example 191, 2-{[(3R)-3-{5-amino-3H-[1,2,3]triazolo [4,5-b]pyridin-7-yl}-3-phenylpropyl]({4-phenylbicyclo[2.2.2]octan-1-yl})amino}-N-methylacetamide]
IC50 (myeloperoxidase [1]): 101 to 999 nM | IC50 (myeloperoxidase [2]): 1 to 100 nM

CN(C)C(=O)CN(CC[C@H](c1ccccc1)c1cc(N)nc2[nH]nnc12)C12CCC(c3ccccc3)(CC1)CC2 [Example 192, 2-{[(3R)-3-{5-amino-3H-[1,2,3]triazolo [4,5-b]pyridin-7-yl}-3-phenylpropyl]({4-phenylbicyclo[2.2.2]octan-1-yl})amino}-N,N-dimethylacetamide]
IC50 (myeloperoxidase [1]): 1000 to 10000 nM | IC50 (myeloperoxidase [2]): 1 to 100 nM

Nc1cc([C@H](CCN(CC2CCO2)C23CCC(c4ccccc4)(CC2)CC3)c2ccccc2)c2nn[nH]c2n1 (stereo partly drawn) [Example 193, 7-[(1R)-3-{[(oxetan-2-yl)methyl]({4-phenylbicyclo [2.2.2]octan-1-yl})amino}-1-phenylpropyl]-3H-[1,2,3]triazolo[4,5-b]pyridin-5-amine]
IC50 (myeloperoxidase [1]): 1 to 100 nM | IC50 (myeloperoxidase [2]): 1 to 100 nM

Nc1cc([C@H](CCN(CC2CCCO2)C23CCC(c4ccccc4)(CC2)CC3)c2ccccc2)c2nn[nH]c2n1 (stereo partly drawn) [Example 195, 7-[(1R)-3-{[(oxolan-2-yl)methyl]({4-phenylbicyclo [2.2.2]octan-1-yl})amino}-1-phenylpropyl]-3H-[1,2,3]triazolo[4,5-b]pyridin-5-amine]
IC50 (myeloperoxidase [1]): 101 to 999 nM | IC50 (myeloperoxidase [2]): 1 to 100 nM

COCCN(CC[C@H](c1ccccc1)c1cc(N)nc2[nH]nnc12)C12CCC(c3ccccc3)(CC1)CC2 [Example 196, 7-[(1R)-3-[(2-methoxyethyl)({4-phenylbicyclo[2.2.2]octan-1-yl})amino]-1-phenylpropyl]-3H-[1,2,3]triazolo[4,5-b]pyridin-5-amine]
IC50 (myeloperoxidase [1]): 101 to 999 nM | IC50 (myeloperoxidase [2]): 1 to 100 nM

Nc1cc([C@H](CCN(CC(F)F)C23CCC(c4ccccc4)(CC2)CC3)c2ccccc2)c2nn[nH]c2n1 [Example 197, 7-[(1R)-3-[(2,2-difluoroethyl)({4-phenylbicyclo[2.2.2]octan-1-yl})amino]-1-phenylpropyl]-3H-[1,2,3]triazolo[4,5-b]pyridin-5-amine]
IC50 (myeloperoxidase [1]): 101 to 999 nM | IC50 (myeloperoxidase [2]): 1 to 100 nM
